{"source": "patent US8577624B2", "about": "“Crystal structure of a plasma membrane proton pump” (Aarhus Universitet, priority 2007, dated 2013)", "key": {"[1]": {"target": "T1, plasma membrane H+-ATPase (Arabidopsis thaliana, UniProt P19456)", "T1 sequence (P19456 1-948)": "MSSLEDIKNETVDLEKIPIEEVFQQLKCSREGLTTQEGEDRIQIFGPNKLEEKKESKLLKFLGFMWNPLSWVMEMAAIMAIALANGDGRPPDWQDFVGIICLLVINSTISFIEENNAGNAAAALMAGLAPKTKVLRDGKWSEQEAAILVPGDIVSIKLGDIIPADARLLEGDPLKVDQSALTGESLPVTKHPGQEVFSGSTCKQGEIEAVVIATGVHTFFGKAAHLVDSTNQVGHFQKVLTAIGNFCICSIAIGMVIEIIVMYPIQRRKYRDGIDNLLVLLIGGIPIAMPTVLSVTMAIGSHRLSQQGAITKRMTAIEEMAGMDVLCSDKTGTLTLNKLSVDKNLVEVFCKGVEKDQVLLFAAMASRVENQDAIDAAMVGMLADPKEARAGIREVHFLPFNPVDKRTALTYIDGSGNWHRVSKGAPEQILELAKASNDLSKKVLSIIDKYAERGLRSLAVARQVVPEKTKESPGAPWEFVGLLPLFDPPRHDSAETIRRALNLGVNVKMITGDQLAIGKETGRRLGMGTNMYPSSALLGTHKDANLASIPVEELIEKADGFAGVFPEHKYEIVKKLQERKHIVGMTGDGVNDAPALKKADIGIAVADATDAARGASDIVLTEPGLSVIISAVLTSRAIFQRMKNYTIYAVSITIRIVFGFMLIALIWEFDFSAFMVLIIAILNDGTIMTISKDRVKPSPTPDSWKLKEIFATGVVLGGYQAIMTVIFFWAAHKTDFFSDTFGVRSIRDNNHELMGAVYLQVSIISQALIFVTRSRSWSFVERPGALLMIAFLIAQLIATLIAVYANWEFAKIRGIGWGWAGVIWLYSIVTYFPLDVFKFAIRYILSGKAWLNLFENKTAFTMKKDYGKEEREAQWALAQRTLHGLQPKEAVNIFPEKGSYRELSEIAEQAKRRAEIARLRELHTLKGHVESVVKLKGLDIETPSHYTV", "experiment": "Inhibition of H+ ATPase ATP hydrolytic activity by platin and holmium ions (Pi production)", "type": "biochemical", "conditions": "20 mM Mops pH 6.5, 50 mM KCl, 8 mM MgCl2, 3 mM ATP; various concentrations; FIG. 12; numbers only in figure", "protocol": "(§1) Assay conditions are 20 mM Mops, pH: 6.5, 50 mM KCl, 8 mM MgCl2 and 3 mM ATP. Production of Pi was measured by standard […] tests. The results are shown in FIG. 12A and the activity is given as the percentage of the ATP hydrolytic activity in the absence of various concentrations of Pt (±StDev).\nas §1, with “12B” for “12A”, “Ho” for “Pt”"}, "[2]": {"system": "plasma membrane H+-ATPases", "conditions": "vanadate in its plus 5 valence state; cited from earlier work"}, "[3]": {"target": "Sarcoplasmic Endoplasmic Reticulum Ca2+-ATPase (SERCA)", "conditions": "blocking SERCA; cited from earlier work"}}, "data": [{"molecule": "[Ho+3]", "note": "[Ho]", "values": [{"measurement": "ATP hydrolytic activity of plasma membrane H+-ATPase", "setting": "[1]", "value": "inhibits"}]}, {"molecule": "[O]=[V]([O-])([O-])[O-]", "note": "[Vanadate]", "values": [{"measurement": "concentration at which the pumps are inhibited", "setting": "[2]", "value": "μM range"}]}, {"molecule": "C/C=C(/C)C(=O)O[C@H]1C(C)=C2[C@H]([C@@H]1OC(=O)CCCCCCC)[C@@](C)(OC(C)=O)C[C@H](OC(=O)CCC)[C@@]1(O)[C@H]2OC(=O)[C@@]1(C)O", "note": "[thapsigargin]", "values": [{"measurement": "Kd", "setting": "[3]", "value": "sub-nanomolar range"}]}]}
